pIC50: −log10 of the molar value. Like-named read-outs stand apart in the source and are kept apart here.
Tests used:
CDK4/cyclin D3 = target: T1, CDK4/cyclin D3 (Homo sapiens, UniProt P11802); assay: Human CDK4/cyclin D3 inhibitory activity (QS S Assist CDK4/Cyclin D3_FP Kit, IMAP fluorescence polarization); format: biochemical
T1 construct: purchased Carna Biosciences, Inc. QS S Assist CDK4/Cyclin D3_FP Kit
In short: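 Percent inhibition, relative to DMSO with and without enzyme, was curve-fitted to give IC50 from polarization (ex 485, em 535 nm). The 45-min room-temperature reaction used 12.5-25 ng/well enzyme, kit ATP/substrate/metal mix, and HEPES pH 7.4 buffer with Tween20 and DTT, followed by 30-min IMAP binding in the dark.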

CDK2/cyclin A2 = target: T2, CDK2/cyclin A2 (Homo sapiens, UniProt P24941); assay: Human CDK2/cyclin A2 inhibitory activity (QS S Assist CDK2/Cyclin A2_FP Kit, IMAP fluorescence polarization); format: biochemical
T2 construct: purchased Carna Biosciences, Inc. QS S Assist CDK2/Cyclin A2_FP Kit
In short: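 Kinase activity read as fluorescence polarization (485/535 nm) after phosphorylated fluorescent substrate binds IMAP reagent (30 min, RT, dark). Enzyme (2.5 ng/well) reacted 60 min at RT with ATP/substrate/metal in HEPES pH 7.4 buffer with Tween 20 and DTT; no-enzyme wells define 0% activity; IC50 by curve fit.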

[1] = Human CDK4/cyclin D3 inhibitory activity, read-out: CDK4 Activity symbol
[2] = Human CDK2/cyclin A2 inhibitory activity, read-out: CDK2 Activity symbol
[3] = 50% inhibitory concentration against CDK4/cyclin D3, given as class symbol
[4] = 50% inhibitory concentration against CDK2/cyclin A2, given as class symbol

T1 sequence (P11802 whole entry): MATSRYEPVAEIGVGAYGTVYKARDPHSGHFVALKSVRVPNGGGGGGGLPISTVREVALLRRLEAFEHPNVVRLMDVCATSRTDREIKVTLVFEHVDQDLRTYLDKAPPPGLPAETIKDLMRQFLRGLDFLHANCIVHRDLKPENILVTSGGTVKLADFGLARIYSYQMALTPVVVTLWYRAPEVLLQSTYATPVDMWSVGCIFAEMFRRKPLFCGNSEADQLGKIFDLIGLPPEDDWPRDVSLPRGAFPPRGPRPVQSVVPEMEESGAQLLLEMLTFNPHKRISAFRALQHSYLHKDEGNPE
T1 sequence (P30281 whole entry partner): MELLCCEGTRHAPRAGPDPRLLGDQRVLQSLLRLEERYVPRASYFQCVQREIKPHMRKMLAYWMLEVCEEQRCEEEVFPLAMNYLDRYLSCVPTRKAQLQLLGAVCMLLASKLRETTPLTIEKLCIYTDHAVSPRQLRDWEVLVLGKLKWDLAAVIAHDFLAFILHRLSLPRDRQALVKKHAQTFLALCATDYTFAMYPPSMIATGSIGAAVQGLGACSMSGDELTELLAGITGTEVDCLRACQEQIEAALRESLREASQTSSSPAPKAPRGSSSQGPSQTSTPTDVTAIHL

Compound	pIC50 (CDK4/cyclin D3; [1])	pIC50 (CDK2/cyclin A2; [2])	pIC50 (CDK4/cyclin D3; [3])	pIC50 (CDK2/cyclin A2; [4])
COCC(C)(C)Nc1nc([C@@H](C)O)cc2cnc(Nc3ccc(CN4CCOCC4(C)C)cn3)nc12 [Compound 298]	7.00 to 8.00	≤ 7.00		
CC(C)Nc1nc([C@@H](C)O)cc2cnc(Nc3ccc(C(=O)N4CCN(C)CC4)cn3)nc12 [Compound 1160]			> 8.00	7.00 to 8.00
CC(C)Nc1nc(C(C)O)cc2cnc(Nc3ccc(N4CCC(N)C(F)C4)nn3)nc12 (stereo not shown) [Compound 619]	> 8.00	≤ 7.00		
CO[C@H](C)c1cc2cnc(Nc3ccc(N4CC[C@H](N)[C@@H](F)C4)cn3)nc2c(NC(C)C)n1 [Compound 467]	> 8.00	≤ 7.00		
CC(C)Nc1nc([C@@H](C)O)cc2cnc(Nc3ccc(N4CCN(C(C)C(=O)O)CC4=O)cn3)nc12 (stereo partly shown) [Compound 895]			> 8.00	≤ 7.00
COC[C@@H](C)Nc1nc([C@@H](C)O)cc2cnc(Nc3ccc(OCCN(C)C)cn3)nc12 [Compound 785]			> 8.00	≤ 7.00
CCNc1nc([C@@H](C)O)cc2cnc(Nc3ccc(N4CCNCC4)c(C)n3)nc12 [Compound 1091]			> 8.00	≤ 7.00
CC(C)Nc1nc(C2CCOC2)cc2cnc(Nc3ccc4c(n3)CCN(CCN(C)C)C4)nc12 (stereo not shown) [Compound 1230]			> 8.00	≤ 7.00
O=C(CO)N1CCc2nc(Nc3ncc4cc(C5CCOC5)nc(N[C@H]5CCCOC5)c4n3)ccc2C1 (stereo partly shown) [Compound 1114]			> 8.00	≤ 7.00
CC(C)Nc1nc(C(F)F)cc2cnc(Nc3ccc(CN4CCC(N(C)C)CC4)cn3)nc12 [Compound 130]	> 8.00	7.00 to 8.00		
CO[C@H](C)c1cc2cnc(Nc3ccc(N4CCNCC4)nn3)nc2c(NCC(C)(C)C)n1 [Compound 710]			> 8.00	≤ 7.00
CN(C)CCN1CCc2nc(Nc3ncc4cc(C5CCOC5)nc(N[C@H]5CC[C@H](O)CC5)c4n3)ccc2C1 (stereo partly shown) [Compound 1181]			> 8.00	≤ 7.00
Cc1ccc(Nc2ncc3cc(C(F)F)nc(NC(C)C)c3n2)nc1 [Compound 157]	7.00 to 8.00	≤ 7.00		
CC(C)Nc1nc([C@@H](C)O)cc2cnc(Nc3ccc(N4CC5CCCN5CC4=O)cn3)nc12 (stereo partly shown) [Compound 825]			> 8.00	≤ 7.00
CCCNc1nc(C2(C)COC2)cc2cnc(Nc3ccc(N4CCNCC4)cn3)nc12 [Compound 1002]			> 8.00	≤ 7.00
CCNc1nc([C@@H](C)O)cc2cnc(Nc3ccc(CN4CCN(C)CC4)cn3)nc12 [Compound 1103]			> 8.00	≤ 7.00
CC(C)Nc1nc([C@@H](C)O)c(F)c2cnc(Nc3ccc(N4CCNCC4=O)cn3)nc12 [Compound 981]			> 8.00	7.00 to 8.00
CC(C)Nc1nc([C@@H](C)O)cc2cnc(Nc3ccc4c(n3)CCNC4)nc12 [Compound 693]			> 8.00	≤ 7.00
CC(C)Nc1nc([C@@H](C)O)cc2cnc(Nc3ccc(N4CCN(CC(C)(C)O)CC4)nn3)nc12 [Compound 625]	> 8.00	≤ 7.00		
CC(C)Nc1nc([C@@H](C)O)cc2cnc(Nc3ccc(OCCNS(C)(=O)=O)cn3)nc12 [Compound 867]			> 8.00	≤ 7.00
CC(C)Nc1nc([C@@H](C)O)cc2cnc(Nc3ccc(N4CCN(CC(=O)O)CC4C(F)(F)F)cn3)nc12 (stereo partly shown) [Compound 892]			7.00 to 8.00	≤ 7.00
CC(C)Nc1nc(C(F)F)cc2cnc(Nc3ccc(CCNS(C)(=O)=O)cn3)nc12 [Compound 151]	> 8.00	7.00 to 8.00		
CO[C@H](C)c1cc2cnc(Nc3ccc(CN4CCNC5(CC5)C4)cn3)nc2c(N[C@H]2CCCOC2)n1 [Compound 378]	> 8.00	≤ 7.00		
C[C@@H](O)c1cc2cnc(Nc3ccc(N4CCNCC4=O)cn3)nc2c(NC2CC(F)C2)n1 (stereo partly shown) [Compound 1210]			> 8.00	≤ 7.00
CO[C@H](C)c1cc2cnc(Nc3ccc(CN4CCN(C(=O)C5CCOC5)CC4)cn3)nc2c(NC(C)C)n1 (stereo partly shown) [Compound 1158]			> 8.00	≤ 7.00
CC(C)Nc1nc(C(F)F)cc2cnc(Nc3ccc(N4CC[C@H](O)CC4=O)cn3)nc12 [Compound 137]	> 8.00	7.00 to 8.00		
CC(C)Nc1nc(C2CCCO2)cc2cnc(Nc3ccc(N4CCNCC4)nn3)nc12 (single isomer, unassigned) [Compound 714]			≤ 7.00	≤ 7.00
CC(C)Nc1nc([C@@H](C)O)cc2cnc(Nc3ccc(N4CCN(CC(=O)N(C)C)CC4=O)cn3)nc12 [Compound 962]			> 8.00	≤ 7.00
C[C@@H](O)c1nc(N[C@H]2CC[C@H](O)CC2)c2nc(Nc3ccc(N4CCNCC4)nn3)ncc2c1Cl [Compound 368]	> 8.00	≤ 7.00		
